Experiment [1] concerns Cladosporium cucumerinum. In words: melanin biosynthesis inhibition screen, disk diffusion assay on solidified culture. The following applies: for Observation: inhibits, radius cleared: growth inhibition zone; for Observation: effect on growth and pigmentation in words. It is filed as cell-based. The protocol:
Potato dextrose medium (PDM) for the screening test is prepared by melting
The mixture is autoclaved as 150 ml aliquots at 121°C for 25 minutes.
A chloramphenicol stock solution is prepared to contain 15 mg chloramphenicol per mL absolute ethanol and is stored at -20°C.
Conidia from Cladosporium cucumerinum, 10^7/mL in 0.03% Tween 20™, retain their viability for at least 12 weeks of storage in 1.8 ml cryovials at -85°C. Inoculum for running the screen are raised once every three months and stored without a cryoprotectant at the working concentration of 10^7 conidia/mL.
Fresh inoculum suspensions are prepared from conidial suspensions stored at -85°C. A cryovial is thawed by hand-heat, and 200 uL spread on the surface of PDA in 9 cm Petri dishes. Plates are placed in a resin box (to prevent fungal escape) and incubated at room temperature, 40 cm below laboratory fluorescent lights. Seven days later conidia are collected. Five mL of 0.03% Tween 20™ is added to each plate, and the conidia are released by rubbing the mycelium with a glass rod. The suspension is passed through a layer of sterile Miracloth™ and the concentration adjusted to 10^7 conidia/mL in 0.03% Tween 20™ using a haemocytometer. Aliquots of 1 mL are dispensed into cryovials and placed in a polystyrene holder to freeze slowly to -85°C.
For the test, 150 mL of PDM is cooled to 35°C, and 0.1 mL of chloramphenicol stock solution is added by gentle swirling. A vial of C. cucumerinum conidial suspension (10^7 conidia/ml in Tween 20™) thawed with hand-heat is mixed into the growth medium using gentle swirling. The mixture is poured immediately into a Biotray, and the agar is allowed to solidify.
Test compounds are applied to 0.63 cm (¼ inch) filter disks. Each test includes a positive control, 200 ng tricyclazole in 20% dimethyl sulphoxide (DMSO). The plate is incubated at room-temperature (∼23°C) 40 cm below laboratory fluorescent lights. The plate is read 40 hours later. […] The Biotrays are autoclaved before disposal.
The compounds are applied as 20 ul droplets from a 1 mg/ml stock solution.
On the technique in general: Agar diffusion results depend on both activity and mobility in agar.

Experiment [2] concerns wild-type strain M. grisea.
Setting [3] is: Antifungal Panel, 20 ul droplets from a 1 mg/ml stock solution on filter disk, read 40 hours later.
Setting [4] is: C. cucumerinum Antibiotic Panel, screen of Example 1.

Here are results for ten molecules from patent EP0635577B1, “Screen for inhibitors of melanin biosynthesis” (BASF AKTIENGESELLSCHAFT, priority 1993, dated 1995).

Counter-ions that a name gives are not always drawn.

Consider `CC(C)(C)C(O)/C(=C\c1ccc(Cl)cc1Cl)n1cncn1` (centres unmarked) [Diniconazole], for which the “Observation: inhibits, radius cleared” value in experiment [1] (setting [3]) was “inhibits, 27 mm radius cleared”.
As to `C[C@@H]1C[C@@H]2CCCC(O)=C2C(=O)O1` [Ramulosin], the Observation result in experiment [1] (setting [4]) is recorded as “no effect on growth or pigmentation”.
The same measure, in the same setting: under Tetrahydro Spiramycin Base stands “no effect on growth or pigmentation”.
Consider `Cc1cccc2sc3nncn3c12` [tricyclazole], for which the inhibition of penetration in experiment [2] (15 ng in 1.5% acetone, onion epidermal pieces, 25°C for 24 hours) was 100%. The “penetration of freshly harvested onion epidermis by wild-type M. grisea” value in experiment [2] (in the presence of the inhibitor, about 90 to 95% of germinating wild-type conidia penetrate without it) was “no penetration”.
As to `CC[C@H]1OC(=O)C[C@@H](O)[C@H](C)[C@@H](O[C@@H]2O[C@H](C)[C@@H](O[C@H]3C[C@@](C)(O)[C@@H](O)[C@H](C)O3)[C@H](N(C)C)[C@H]2O)[C@@H](CC=O)C[C@@H](C)C(=O)/C=C/C(C)=C/[C@@H]1CO[C@@H]1O[C@H](C)[C@@H](O)[C@@H](OC)[C@H]1OC` [Tylosin Tartrate], the Observation entry in experiment [1] (setting [4]) is “no effect on growth or pigmentation”.
For the molecule Noconazole, the “Observation: inhibits, radius cleared” value in experiment [1] (setting [3]) is “inhibits, 8 mm radius cleared”.
On the same count and under the same terms, in the case of `Clc1ccc(COC(Cn2ccnc2)c2ccc(Cl)cc2Cl)c(Cl)c1` (centres unmarked) [Miconazole] it was “inhibits, 31 mm radius cleared”.
Consider `CN(C)c1ncnc2c1ncn2[C@@H]1O[C@H](CO)[C@@H](N)[C@H]1O` [Puromycin Aminonucleoside], for which the Observation entry in experiment [1] (setting [4]) is on record as “no effect on growth or pigmentation”.
As to `Nc1ccn([C@@H]2O[C@H]([C@H](O[C@@H]3O[C@H](CO)[C@@H](O)[C@H](N)[C@H]3O)[C@@H](O)[C@@H](O)[C@H](O)[C@H](O)CO)[C@@H](N)[C@H](O)[C@H]2O)c(=O)n1` [Anthelmycin], the “Observation: inhibits, radius cleared” value in experiment [1] (setting [4]) is given as “inhibits, 14 mm radius cleared”.
Regarding `Cc1cc(=O)n2c3c(c4c(cc13)c(CO)cc(=O)n4C)OC2` [Nybomycin], in experiment [1] (setting [4]), the Observation result is listed as “no effect on growth or pigmentation”.
